Measured values taken from patent publication US20260191968A1, “PROTAC DEGRADERS OF MLLT1 AND/OR MLLT3” (DARK BLUE THERAPEUTICS LTD, priority 2024, published 2026).

Assays:
MV4-11 cells = experiment: MV4-11 cellular proliferative assay, Assay Format A (CellTiter-Glo, 120 hours); assay type: cell-based; details: Homo sapiens
Protocol: An MV4-11 proliferation assay was used to test the ability of compounds to reduce cell viability. MV4-11 cells (ATCC #CRL9591) were grown in IMDM medium (11510596, Gibco) supplemented with 10% fetal bovine serum (F7524, Gibco) and 1% Penicillin/Streptomycin (15140-122, Gibco) at 37° C. with 5% CO2. Cells were seeded in 384-well Elplasia plates (4447, Corning) at a density of 50 cells/well and treated with vehicle (DMSO) or compounds (10 serial semi-log dilutions, 30 μM as top concentration).
After 120 hours of treatment, cells were incubated for 10 min at RT with the CellTiter-Glo (CTG) reagent (G7571, Promega). Measurement of the luminescence signal was performed on a microplate reader (Ensight, PerkinElmer). CTG reagent measures the amount of ATP, which is directly proportional to the number of cells, to determine the number of viable cells in culture.
The data were analysed as follows:
where x is the measured raw signal value of a well, (cr) is the median of the measured signal values for the Central Reference (DMSO) wells on a plate, (sr) is the median of the measured signal values for the Scale Reference (reference compound) wells on a plate.
where the experimental set-up assumes the Hill parameters in certain ranges: S0~Central Reference (CR) from normalization (=Bottom), Sinf~Scale Reference (SR) from normalization (=Top), nHill~1, AC50~within the measured concentration range.

MLLT1 = target: T1, MLLT1 (Homo sapiens, UniProt Q03111); experiment: MLLT1 degradation assay in MV4-11 cells (JESS chemiluminescent detection), three concentrations, 24 h; assay type: cell-based; details: with respect to DMSO control
T1 construct: host or cells: MV4-11
T1 sequence (Q03111 1-559): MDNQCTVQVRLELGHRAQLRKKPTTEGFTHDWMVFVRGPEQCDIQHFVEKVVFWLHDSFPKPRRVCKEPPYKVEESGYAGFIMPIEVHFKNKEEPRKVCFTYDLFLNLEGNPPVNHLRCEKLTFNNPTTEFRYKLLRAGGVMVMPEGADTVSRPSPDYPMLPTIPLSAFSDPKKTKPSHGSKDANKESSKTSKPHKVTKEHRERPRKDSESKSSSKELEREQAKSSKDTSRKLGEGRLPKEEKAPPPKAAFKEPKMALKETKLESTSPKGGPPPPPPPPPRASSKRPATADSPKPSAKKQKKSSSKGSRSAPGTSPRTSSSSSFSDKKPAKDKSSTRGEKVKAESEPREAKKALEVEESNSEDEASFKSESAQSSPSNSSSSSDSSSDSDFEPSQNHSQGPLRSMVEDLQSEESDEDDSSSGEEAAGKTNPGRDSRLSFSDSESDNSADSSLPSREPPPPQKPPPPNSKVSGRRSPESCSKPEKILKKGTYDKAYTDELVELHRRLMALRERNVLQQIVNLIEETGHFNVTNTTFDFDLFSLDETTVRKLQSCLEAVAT
Method in brief: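 MV4-11 cells treated 24 h at 37° C, 5% CO2 with 1000, 100 and 10 nM compound (0.1% DMSO final). MLLT1 quantified by automated capillary chemiluminescent immunodetection; band peak area expressed as % degradation relative to DMSO control.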

Structure (SMILES) | IC50 (MV4-11 cells) [nM] | MLLT1% Degradation @ 0.01 μM (MLLT1) | MLLT1% Degradation @ 0.1 μM (MLLT1) | MLLT1% Degradation @ 1 μM (MLLT1)
CN1CCC[C@@H]1c1cc2cnc(NC(=O)c3ccc(-c4cnn(CCCC#Cc5cccc6c5CN(C5CCC(=O)NC5=O)C6=O)c4)cc3)cc2[nH]1 (stereo partly drawn) [Example 21, 4-(1-(5-(2-(2,6-dioxopiperidin-3-yl)-1-oxoisoindolin-4-yl)pent-4-yn-1-yl)-1H-pyrazol-4-yl)-N-(2-((R)-1-methylpyrrolidin-2-yl)-1H-pyrrolo[3,2-c]pyridin-6-yl)benzamide] | ≤ 100 | A (Category A: A ≥ 75% degradation) | A (Category A: A ≥ 75% degradation) | B (Category B: 50% ≤ B < 75% degradation)
CN1CCC[C@@H]1c1cc2cnc(NC(=O)CCCCCCNc3cccc4c3C(=O)N(C3CCC(=O)NC3=O)C4=O)cc2[nH]1 (stereo partly drawn) [Example 29, 7-{[2-(2,6-dioxopiperidin-3-yl)-1,3-dioxoisoindol-4-yl]amino}-N-{2-[(2R)-1-methylpyrrolidin-2-yl]-1H-pyrrolo[3,2-c]pyridin-6-yl}heptanamide] | ≤ 100 | D (Category D: D < 25% degradation) | C (Category C: 25% ≤ C < 50% degradation) | A (Category A: A ≥ 75% degradation)
CN1CCC[C@@H]1c1[nH]c2cc(NC(=O)CCCCCCNc3cccc4c3C(=O)N(C3CCC(=O)NC3=O)C4=O)ncc2c1Cl (stereo partly drawn) [Example 33, N-{3-chloro-2-[(2R)-1-methylpyrrolidin-2-yl]-1H-pyrrolo[3,2-c]pyridin-6-yl}-7-{[2-(2,6-dioxopiperidin-3-yl)-1,3-dioxoisoindol-4-yl]amino}heptanamide] | ≤ 100 | B (Category B: 50% ≤ B < 75% degradation) | A (Category A: A ≥ 75% degradation) | A (Category A: A ≥ 75% degradation)
CN1CCC[C@@H]1c1cc2cnc(NC(=O)c3ccc(-c4cnn(CCCC5CCN(c6cccc7c6C(=O)N(C6CCC(=O)NC6=O)C7=O)CC5)c4)cc3)cc2[nH]1 (stereo partly drawn) [Example 34, 4-[1-(3-{1-[2-(2,6-dioxopiperidin-3-yl)-1,3-dioxoisoindol-4-yl]piperidin-4-yl}propyl)pyrazol-4-yl]-N-{2-[(2R)-1-methylpyrrolidin-2-yl]-1H-pyrrolo[3,2-c]pyridin-6-yl}benzamide] | ≤ 100 |  | A (Category A: A ≥ 75% degradation) | A (Category A: A ≥ 75% degradation)
CN1CCC[C@@H]1c1cc2cnc(NC(=O)c3ccc(-c4cnn(CCCC5CCN(c6cccc7c6CN(C6CCC(=O)NC6=O)C7=O)CC5)c4)cc3)cc2[nH]1 (stereo partly drawn) [Example 35, 4-[1-(3-{1-[2-(2,6-dioxopiperidin-3-yl)-1-oxo-3H-isoindol-4-yl]piperidin-4-yl}propyl)pyrazol-4-yl]-N-{2-[(2R)-1-methylpyrrolidin-2-yl]-1H-pyrrolo[3,2-c]pyridin-6-yl}benzamide] | ≤ 100 | A (Category A: A ≥ 75% degradation) | A (Category A: A ≥ 75% degradation) | A (Category A: A ≥ 75% degradation)
CN1CCC[C@@H]1c1cc2cnc(NC(=O)c3ccc(CCCNc4cccc5c4C(=O)N(C4CCC(=O)NC4=O)C5=O)cc3)cc2[nH]1 (stereo partly drawn) [Example 36, 4-(3-{[2-(2,6-dioxopiperidin-3-yl)-1,3-dioxoisoindol-4-yl]amino}propyl)-N-{2-[(2R)-1-methylpyrrolidin-2-yl]-1H-pyrrolo[3,2-c]pyridin-6-yl}benzamide] | ≤ 100 | A (Category A: A ≥ 75% degradation) | A (Category A: A ≥ 75% degradation) | A (Category A: A ≥ 75% degradation)
CN1CCC[C@H]1c1cc2cnc(NC(=O)c3ccc(CCCNc4cccc5c4C(=O)N(C4CCC(=O)NC4=O)C5=O)cc3)cc2[nH]1 (stereo partly drawn) [Example 37, 4-(3-{[2-(2,6-dioxopiperidin-3-yl)-1,3-dioxoisoindol-4-yl]amino}propyl)-N-{2-[(2S)-1-methylpyrrolidin-2-yl]-1H-pyrrolo[3,2-c]pyridin-6-yl}benzamide] | ≤ 100 | B (Category B: 50% ≤ B < 75% degradation) | A (Category A: A ≥ 75% degradation) | A (Category A: A ≥ 75% degradation)
CN1CCC[C@@H]1c1cc2cnc(NC(=O)COCCCCNc3cccc4c3C(=O)N(C3CCC(=O)NC3=O)C4=O)cc2[nH]1 (stereo partly drawn) [Example 40, 2-(4-((2-(2,6-dioxopiperidin-3-yl)-1,3-dioxoisoindolin-4-yl)amino)butoxy)-N-(2-((R)-1-methylpyrrolidin-2-yl)-1H-pyrrolo[3,2-c]pyridin-6-yl)acetamide] | ≤ 100 |  | C (Category C: 25% ≤ C < 50% degradation) | B (Category B: 50% ≤ B < 75% degradation)
CN1CCC[C@@H]1c1cc2cnc(NC(=O)CCCC3CCN(c4cccc5c4C(=O)N(C4CCC(=O)NC4=O)C5=O)CC3)cc2[nH]1 (stereo partly drawn) [Example 41, 4-(1-(2-(2,6-dioxopiperidin-3-yl)-1,3-dioxoisoindolin-4-yl)piperidin-4-yl)-N-(2-((R)-1-methylpyrrolidin-2-yl)-1H-pyrrolo[3,2-c]pyridin-6-yl)butanamide] | ≤ 100 | B (Category B: 50% ≤ B < 75% degradation) | B (Category B: 50% ≤ B < 75% degradation) | A (Category A: A ≥ 75% degradation)
CN1CCC[C@@H]1c1cc2cnc(NC(=O)CCCCC3CCN(c4cccc5c4C(=O)N(C4CCC(=O)NC4=O)C5=O)CC3)cc2[nH]1 (stereo partly drawn) [Example 42, 5-(1-(2-(2,6-Dioxopiperidin-3-yl)-1,3-dioxoisoindolin-4-yl)piperidin-4-yl)-N-(2-((R)-1-methylpyrrolidin-2-yl)-1H-pyrrolo[3,2-c]pyridin-6-yl)pentanamide] | ≤ 100 |  | B (Category B: 50% ≤ B < 75% degradation) | B (Category B: 50% ≤ B < 75% degradation)

Continued, values first:

IC50 (MV4-11 cells) [nM] | MLLT1% Degradation @ 0.01 μM (MLLT1) | MLLT1% Degradation @ 0.1 μM (MLLT1) | MLLT1% Degradation @ 1 μM (MLLT1) | Structure (SMILES)
≤ 100 | A (Category A: A ≥ 75% degradation) | A (Category A: A ≥ 75% degradation) | A (Category A: A ≥ 75% degradation) | CN1CCC[C@@H]1c1cc2cnc(NC(=O)c3ccc(-c4cnn(CCCC#Cc5ccc6c(c5)CN(C5CCC(=O)NC5=O)C6=O)c4)cc3)cc2[nH]1 (stereo partly drawn) [Example 22, 4-(1-(5-(2-(2,6-dioxopiperidin-3-yl)-1-oxoisoindolin-5-yl)pent-4-yn-1-yl)-1H-pyrazol-4-yl)-N-(2-((R)-1-methylpyrrolidin-2-yl)-1H-pyrrolo[3,2-c]pyridin-6-yl)benzamide]
≤ 100 | A (Category A: A ≥ 75% degradation) | A (Category A: A ≥ 75% degradation) | A (Category A: A ≥ 75% degradation) | C[C@@H](C#Cc1cccc2c1CN(C1CCC(=O)NC1=O)C2=O)Oc1ccc(C(=O)Nc2cc3[nH]c([C@H]4CCCN4C)cc3cn2)cc1 (stereo partly drawn) [Example 24, 4-(((2S)-4-(2-(2,6-dioxopiperidin-3-yl)-1-oxoisoindolin-4-yl)but-3-yn-2-yl)oxy)-N-(2-((R)-1-methylpyrrolidin-2-yl)-1H-pyrrolo[3,2-c]pyridin-6-yl)benzamide]
≤ 100 | A (Category A: A ≥ 75% degradation) | A (Category A: A ≥ 75% degradation) | A (Category A: A ≥ 75% degradation) | C[C@H](C#Cc1cccc2c1CN(C1CCC(=O)NC1=O)C2=O)Oc1ccc(C(=O)Nc2cc3[nH]c([C@H]4CCCN4C)cc3cn2)cc1 (stereo partly drawn) [Example 25, 4-(((2R)-4-(2-(2,6-dioxopiperidin-3-yl)-1-oxoisoindolin-4-yl)but-3-yn-2-yl)oxy)-N-(2-((R)-1-methylpyrrolidin-2-yl)-1H-pyrrolo[3,2-c]pyridin-6-yl)benzamide]
